One assay relates to C57BL/6 mice. As to the kind of experiment: OVA mRNA LNP intramuscular immunization, anti OVA-IgG ELISA. In kind it is in vivo. The conditions noted are these: i.m., days 1 and 10. The source says: LNP with the composition LM02b were used to encapsulate OVA antigen encoded CleanCap® OVA WT mRNA [TriLink L7610] or CleanCap® OVA 5-moU mRNA [TriLink L7210]. A lipid mixture of Ionizable lipid, DOPE, Cholesterol, and PEG-DMG2000, all in ethanol, was mixed with a low PH buffered solution of OVA mRNA at an N/P ratio of 8 using a NanoAssemblr® Ignite™ microfluidic mixer. The LNP were filtered using the Amicon™ ultra filtration technique and characterized for Size, PDI and Encapsulation Efficiency. Size and PDI were measured using dynamic light scattering techniques, and nucleic acid encapsulation efficiency was calculated from the Quant-iT RiboGreen RNA assay. […]
All animals were handled according to the Institutional Animal Care and Use Committee ethics protocols. […] Aliquots of serum samples were thawed and analyzed at appropriate dilutions for OVA expression and for IgG measurements using standard ELISA techniques.
Anti OVA-IgG ELISA of serum samples: Sera from the immunized mice were collected at 2 weeks post second immunization. OVA-specific production of IgG in response to OVA-encoded mRNA in various LNPs were measured by ELISA as described supra. […] After 30 minutes of incubation, a stop solution of 2 N sulphuric acid was added and a plate reader was used to determine absorbance at 450 nm. […]

Another assay has as its system human T cells. As to the kind of experiment: eGFP ELISA after eGFP mRNA LNP treatment of human T cells. The class given is cell-based. The conditions noted are these: FIG. 3; CT10, N/P 10, 10 days post-activation, 48 hours. Here is the method:
Reagents were acquired from Abcam, Cambridge, UK unless otherwise stated. […] The assay was performed as directed by the eGFP SimpleStep ELISA® Kit protocol. Briefly; frozen human T cells, previously isolated from fresh human whole blood using a negative selection protocol, were thawed and activated using a triple activator. […] After 48 hours of treatment with mRNA LNPs the T cells were harvested and lysed for total eGFP content.
In order to expose the isolated and activated T cells (Day 0) to the formulated mRNA, 2 ug of CleanCap™ eGFP (Trilink Biotechnologies, San Diego, CA) mRNA-containing LNP was added to 500,000 T cells in 1 mL of complete T cell media, with 1 ug/mL of Recombinant Human ApoE4 (“ApoE”) (Peprotech Inc., Montreal, Canada).
Frozen human T cells, previously isolated from fresh human whole blood using a negative selection protocol, were thawed and activated using a triple activator. At 10 days post-activation, T cells were dosed with CT10 mRNA LNPs LNP comprising DLin-MC3-DMA, PNI 76, PNI 119, PNI 120, PNI 121, and PNI 122 encoding eGFP at 2 pg mRNA per 500,000 cells and N/P 10. Protein expression was measured after 48 hours by eGFP ELISA.

Turning to `CCCCC/C=C\C/C=C\CCCCCCCC(=O)O[C@@H]1[C@@H](OC(=O)CCCCCCC/C=C\C/C=C\CCCCC)CO[C@@H]1COC(=O)CCCN1CCCC1` (racemic) [PNI 539], the “immune response to OVA antigen loaded LNPs” value with C57BL/6 mice is “effectively elicit an immune response similar to OVA antigen”.

Take `CCCCC/C=C\C/C=C\CCCCCCCC(=O)O[C@@H]1[C@@H](OC(=O)CCCCCCC/C=C\C/C=C\CCCCC)CO[C@@H]1COC(=O)CCCN(C)C` (racemic) [PNI 121]: the “eGFP expression by eGFP ELISA compared with MC3” value in the assay on human T cells is “greater than that of MC3”.

(Values after patent publication US12636368B2, “Ionizable lipids for nucleic acid delivery” (Global Life Sciences Solutions Canada ULC, priority 2019, dated 2026).)
